Where “and” joins values, the source holds several entries; their conditions need not be identical. Equal entries are not always repeated. Inconclusive results and toxic doses are left out. How the source made its calls: active means survival T/C of 150% or more; inactive means T/C below 125% in these data.
System: P388 leukemia ip, CD2F1 mice, survival T/C
Test: NCI In Vivo Anticancer Drug Screen. Data for tumor model P388 Leukemia (intraperitoneal) in CD2F1 (CDF1) mice
Details: endpoint: median survival time, higher = longer survival
Summary of the method: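 Mice carrying the transplanted tumor received test compound or vehicle. Survival was recorded in each group, and the value is the treated-group measurement divided by that of the vehicle-treated control group.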

[1] = dose: 50.0 mg/kg/injection, schedule: Q01DX009 (ip), vehicle: Klucel (hydroxypropylcellulose) (HPC)
[2] = dose: 50.0 mg/kg/injection, schedule: Q01DX005 (ip), vehicle: Klucel (hydroxypropylcellulose) (HPC)
[3] = dose: 100.0 mg/kg/injection, schedule: Q01DX005 (ip), vehicle: Klucel (hydroxypropylcellulose) (HPC)
[4] = dose: 200.0 mg/kg/injection, schedule: Q01DX005 (ip), vehicle: Klucel (hydroxypropylcellulose) (HPC)
[5] = dose: 60.0 mg/kg/injection, schedule: Q01DX005 (ip), vehicle: saline with Tween-80
[6] = dose: 120.0 mg/kg/injection, schedule: Q01DX005 (ip), vehicle: saline with Tween-80
[7] = dose: 240.0 mg/kg/injection, schedule: Q01DX005 (ip), vehicle: saline with Tween-80
[8] = dose: 50.0 mg/kg/injection, schedule: Q01DX009 (ip), vehicle: saline with Tween-80
[9] = dose: 100.0 mg/kg/injection, schedule: Q01DX009 (ip), vehicle: saline with Tween-80
[10] = dose: 100.0 mg/kg/injection, schedule: Q04DX003 (ip), vehicle: saline with Tween-80
[11] = dose: 200.0 mg/kg/injection, schedule: Q01DX009 (ip), vehicle: saline with Tween-80
[12] = dose: 50.0 mg/kg/injection, schedule: Q01DX009 (ip), vehicle: saline
[13] = dose: 100.0 mg/kg/injection, schedule: Q01DX009 (ip), vehicle: saline
[14] = dose: 200.0 mg/kg/injection, schedule: Q01DX009 (ip), vehicle: saline
[15] = dose: 12.5 mg/kg/injection, schedule: Q01DX005 (ip), vehicle: Klucel (hydroxypropylcellulose) (HPC)
[16] = dose: 25.0 mg/kg/injection, schedule: Q01DX005 (ip), vehicle: Klucel (hydroxypropylcellulose) (HPC)

Measured: T/C

C/C=C(\C)C(=O)OC1C2C(C)C(=O)OC2C(O)C(C)C2C=CC(=O)C21C (centres undefined)
inactive: dose: 2.5 mg/kg/injection, schedule: Q01DX009 (ip), vehicle: Klucel (hydroxypropylcellulose) (HPC) 100 % of control | dose: 5.0 mg/kg/injection, schedule: Q01DX009 (ip), vehicle: Klucel (hydroxypropylcellulose) (HPC) 106 % of control | dose: 10.0 mg/kg/injection, schedule: Q01DX009 (ip), vehicle: Klucel (hydroxypropylcellulose) (HPC) 99 % of control | dose: 20.0 mg/kg/injection, schedule: Q01DX009 (ip), vehicle: Klucel (hydroxypropylcellulose) (HPC) 108 % of control

O=C1NC(Cc2ccccc2)C(=O)NC1Cc1ccccc1 (centres undefined)
inactive: dose: 3.13 mg/kg/injection, schedule: Q01DX009 (ip), vehicle: saline with Tween-80 86 % of control | dose: 6.25 mg/kg/injection, schedule: Q01DX009 (ip), vehicle: saline with Tween-80 100 % of control | dose: 12.5 mg/kg/injection, schedule: Q01DX009 (ip), vehicle: saline with Tween-80 107 % of control | dose: 25.0 mg/kg/injection, schedule: Q01DX009 (ip), vehicle: Klucel (hydroxypropylcellulose) (HPC) 101 % of control | dose: 25.0 mg/kg/injection, schedule: Q01DX009 (ip), vehicle: saline with Tween-80 103 % of control | [1] 104 % of control

COC(=O)n1c(=O)oc2ccc(Br)cc21
inactive: [2] 104 % of control | [3] 106 % of control | [4] 102 % of control

Cn1cc(Cc2c[nH]c3ccccc3c2=O)c2ccccc21
inactive: [5] 107 % of control | [6] 99 % of control | [7] 97 % of control

CCOC(=O)C1C(=O)C(CN(CCCl)CCCl)C(=O)C(C(=O)OCC)C1c1ccc(O)cc1 (centres undefined)
inactive: dose: 4.6 micrograms/kg/injection, schedule: Q01DX009 (ip), vehicle: Klucel (hydroxypropylcellulose) (HPC) 104 % of control | dose: 9.0 micrograms/kg/injection, schedule: Q01DX009 (ip), vehicle: Klucel (hydroxypropylcellulose) (HPC) 109 % of control | dose: 18.7 micrograms/kg/injection, schedule: Q01DX009 (ip), vehicle: Klucel (hydroxypropylcellulose) (HPC) 109 % of control | dose: 37.5 micrograms/kg/injection, schedule: Q01DX009 (ip), vehicle: Klucel (hydroxypropylcellulose) (HPC) 116 % of control

Cc1nc(Cl)c(C#N)nc1C
inactive: [8] 100 % of control | dose: 50.0 mg/kg/injection, schedule: Q04DX003 (ip), vehicle: saline with Tween-80 110 % of control | [9] 100 % of control | [10] 100 % of control | [11] 100 % of control | dose: 200.0 mg/kg/injection, schedule: Q04DX003 (ip), vehicle: saline with Tween-80 100 % of control

CCCCCCCCOC(=O)CP(=O)(O)O
inactive: [8] 100 % of control | [9] 96 % of control

NC(=O)NN=C(C(F)(F)F)C(F)(F)F
inactive: [8] 110 % of control | [9] 101 % of control

S=C(N/N=C\c1nc2ccccc2c2ccccc12)Nc1ccc(Cl)cc1
inactive: dose: 100.0 mg/kg/injection, schedule: Q04DX002 (ip), vehicle: Klucel (hydroxypropylcellulose) (HPC) 90 % of control | dose: 200.0 mg/kg/injection, schedule: Q04DX002 (ip), vehicle: Klucel (hydroxypropylcellulose) (HPC) 96 % of control | dose: 400.0 mg/kg/injection, schedule: Q04DX002 (ip), vehicle: Klucel (hydroxypropylcellulose) (HPC) 96 % of control

O=C(O)c1ccccc1N=N/C(=N\Nc1ccccc1C(=O)O)c1ccnc2ccccc12
inactive: [8] 100 % of control | [9] 97 % of control | [11] 103 % of control

CCCc1[nH]n(-c2ccccc2)c(=O)c1N=Nc1ccc(Cl)cc1
inactive: [12] 96 % of control | [13] 100 % of control | [14] 101 % of control

CCCCCCC(=O)NC1=C(N2CC2)C(=O)C(NC(=O)CCCCCC)=C(N2CC2)C1=O
inactive: dose: 12.5 mg/kg/injection, schedule: Q04DX003 (ip), vehicle: saline with Tween-80 100 % of control | dose: 25.0 mg/kg/injection, schedule: Q04DX003 (ip), vehicle: saline with Tween-80 109 % of control | [11] 120 % of control
active: [9] 245 % of control | [10] 159 % of control | dose: 150.0 mg/kg/injection, schedule: Q04DX003 (ip), vehicle: saline with Tween-80 195 % of control

CC(C)N(C(C)C)P1(=NC(C)(C)C)N(C(C)(C)C)P(=NC(C)(C)C)(N(C(C)C)C(C)C)N1C(C)(C)C (centres undefined)
inactive: [15] 107 % of control | [16] 104 % of control | [2] 100 % of control and 102 % of control | [3] 102 % of control

C/C(=C\c1cc(Cl)ccc1OCC(=O)O)[N+](=O)[O-]
inactive: dose: 50.0 mg/kg/injection, schedule: Q01DX001 (ip), vehicle: saline with Tween-80 108 % of control and 116 % of control | dose: 100.0 mg/kg/injection, schedule: Q01DX001 (ip), vehicle: saline with Tween-80 121 % of control and 96 % of control | dose: 200.0 mg/kg/injection, schedule: Q01DX001 (ip), vehicle: saline with Tween-80 121 % of control | dose: 400.0 mg/kg/injection, schedule: Q01DX001 (ip), vehicle: saline with Tween-80 115 % of control

CC1(c2ccccc2)CCCCC/C1=N/Nc1ccc([N+](=O)[O-])cc1[N+](=O)[O-] (centres undefined)
inactive: [16] 97 % of control | [2] 90 % of control | [3] 94 % of control

CN(C)C(=O)Oc1ccc(OC(=O)N(C)C)c2ccccc12
inactive: dose: 6.25 mg/kg/injection, schedule: Q01DX001 (ip), vehicle: Klucel (hydroxypropylcellulose) (HPC) 104 % of control | dose: 12.5 mg/kg/injection, schedule: Q01DX001 (ip), vehicle: Klucel (hydroxypropylcellulose) (HPC) 104 % of control | dose: 25.0 mg/kg/injection, schedule: Q01DX001 (ip), vehicle: Klucel (hydroxypropylcellulose) (HPC) 99 % of control and 100 % of control

CCOC(=O)C12C3C(=O)N(CC)C(=O)C3ON1OC1C(=O)N(CC)C(=O)C12 (centres undefined)
inactive: [5] 100 % of control | [6] 100 % of control | [7] 95 % of control

CCCCCCCC/C=C/CCCCCCCC(=O)OCC(=O)OCC
inactive: [1] 102 % of control | dose: 100.0 mg/kg/injection, schedule: Q01DX009 (ip), vehicle: Klucel (hydroxypropylcellulose) (HPC) 93 % of control | dose: 200.0 mg/kg/injection, schedule: Q01DX009 (ip), vehicle: Klucel (hydroxypropylcellulose) (HPC) 104 % of control

Cc1cn(CCCOc2c3occc3cc3ccc(=O)oc23)c(=O)[nH]c1=O
inactive: [15] 86 % of control | [16] 96 % of control | [2] 88 % of control

Cc1cccc(CCl)n1
inactive: [12] 90 % of control | [13] 107 % of control | [14] 105 % of control

Cc1nnc2cc1CCCCCCCCC2
inactive: [2] 108 % of control | [3] 107 % of control | [4] 103 % of control

C1COCCN2CCOCCOCCN(CCO1)CCOCC2
inactive: [12] 109 % of control | [13] 106 % of control | [14] 107 % of control

O=Cc1c(-c2ccc(-c3ccccc3)cc2)nc2sccn12
inactive: dose: 100.0 mg/kg/injection, schedule: Q01DX001 (ip), vehicle: Klucel (hydroxypropylcellulose) (HPC) 86 % of control | dose: 200.0 mg/kg/injection, schedule: Q01DX001 (ip), vehicle: Klucel (hydroxypropylcellulose) (HPC) 89 % of control | dose: 400.0 mg/kg/injection, schedule: Q01DX001 (ip), vehicle: Klucel (hydroxypropylcellulose) (HPC) 89 % of control

CN(C)c1ccc(/C=C2\C=Cc3ccccc32)cc1Cl
inactive: dose: 6.25 mg/kg/injection, schedule: Q01DX009 (ip), vehicle: saline 101 % of control | dose: 12.5 mg/kg/injection, schedule: Q01DX009 (ip), vehicle: saline 87 % of control | dose: 25.0 mg/kg/injection, schedule: Q01DX009 (ip), vehicle: saline 94 % of control | [12] 94 % of control
